Assay results published in PMC12006963, “Application of Deuterium in an M1 Positive Allosteric Modulator Back-Up Program: The Discovery of VU6045422” (ACS Chemical Neuroscience, 2025).

Experiment: Brain to plasma ratio in rat
Format: in vivo
Settings: male, Sprague-Dawley, brain and plasma, intravenous, 0.2 mg/kg, rat (SD); for Kp at 15 min: brain/plasma; for Kp uu at 15 min: unbound brain/unbound plasma
Protocol: where Qh (hepatic blood flow, mL/min/kg) is 21 (human) or 70 (rat).
LC/MS/MS Bioanalysis of Samples from Plasma Protein Binding and Intrinsic Clearance […]
Samples were analyzed on a Thermo Electron TSQ Quantum Ultra triple quad mass spectrometer (San Jose, CA) via electrospray ionization (ESI) with two Themo Electron Accella pumps (San Jose, CA), and a Leap Technologies CTC PAL autosampler (Carrboro, NC). Analytes were separated by gradient elution on a dual column system with two Thermo Hypersil Gold (2.1 x 30 mm, 1.9 µm) columns (San Jose, CA) thermostated at 40 °C. HPLC mobile phase A was 0.1% formic acid in water and mobile phase B was 0.1% formic acid in acetonitrile. The gradient started […]
for 0.2 min; returned to 10% B in 0.1 min. The total run time was 1.3 min and the HPLC flow rate was 0.8 mL/min. While pump 1 ran the gradient method, pump 2 equilibrated the alternate column isocratically at 10% B. Compound optimization, data collection, and processing was performed using Thermo Electron's QuickQuan software (v2.3) and Xcalibur (v2.0.7 SP1).
In vivo DMPK experimental:
Determination of brain to plasma ratio:
All animal study procedures were approved by the Institutional Animal Care and Use Committee and were conducted in accordance with the National Institutes of Health regulations of animal care covered in Principles of Laboratory Animal Care (National Institutes of Health). All rats were fasted overnight prior to testing.
For determination of the brain over plasma ratio (Kp), compounds were formulated in 8% ethanol, 32% PEG400 and 60% DMSO (v/v/v) and administered as a single 0.2 mg/kg IV dose (1 mL/kg) to male, Sprague Dawley rats (n = 1) via injection into a surgically-implanted jugular vein catheter. At 15 min post dosing, blood sample was collected into chilled, K2EDTA anticoagulant-fortified tube and immediately placed on wet ice. The blood sample was then centrifuged (1700 rcf, 5 minutes, 4 °C) to obtain plasma sample. At the same post-administration time point, whole brain sample was obtained by rapid dissection, rinsed with PBS, and immediately frozen in individual tissue collection box (dry ice). All brain and plasma samples were stored at -80 °C until […]
Sample Analysis: Concentrations in plasma and brain homogenates were quantified by liquid chromatography tandem mass spectrometry (LC-MS/MS). Whole brains were homogenized in 3 mL of 70:30 IPA:water in a mini bead beater for 3 min, and centrifuged at 3,500 g for 5 min. 5 uL of the supernatant was diluted in 15 uL of blank plasma for quantification of the analytes. Plasma samples were centrifuged at 3,500 g for 5 min. A standard curve was generated by diluting the analytes DMSO stocks with blank plasma to obtain a final concentration of 10,000 ng/ml followed by a serial dilution down to 0.5 ng/ml. Quality controls were generated by a serial dilution of the 5,000 ng/ml standard curve solution in blank plasma to obtain 3 concentrations of 500, 50, and 5 ng/ml. 20 uL of brain diluted in plasma, plasma, blank plasma, standard curve and QC samples were loaded in a V-bottom 96-well plate. 120 uL of acetonitrile containing 0.05 uM carbamazepine (internal standard) was added to each well and the plate was centrifuged at 3,500 g for 5 min. 60 uL of the supernatant of each well (protein free) was transferred to a new 96-well plate containing 60 uL of water. The plates were sealed for analysis by LC-MS/MS.
Plasma and brain tissue samples originating from in vivo studies were analyzed by electrospray ionization using an AB Sciex Q-TRAP 5500 (Foster City, CA) that was coupled to a Shimadzu LC-20AD pump (Columbia, MD) and a Leap Technologies CTC PAL auto-sampler (Carrboro, NC). Analytes were separated by gradient elution using a C18 column (3 x 50 mm, 3 mm; Fortis Technologies Ltd, Cheshire, UK) that was thermostated at 40 °C. HPLC mobile phase A was 0.1% formic acid in water (pH unadjusted); mobile phase B was 0.1% formic acid in acetonitrile (pH […]

`[2H]C1([2H])c2ncccc2C(=O)N1Cc1c(F)cc(-c2cccc3nn(C)cc23)cc1F` [compound 3] showed a Kp at 15 min of 0.63 and a Kp uu at 15 min of 0.57.
Compound `Cn1cc2c(-c3cc(F)c(CN4Cc5ncccc5C4=O)c(F)c3)cccc2n1` [compound 1] has a Kp at 15 min of 0.77 and a Kp uu at 15 min of 1.3.
`[2H]C1([2H])c2ncccc2C(=O)N1Cc1c(F)cc(-c2cccc3nn(C([2H])([2H])[2H])cc23)cc1F` [compound 5] gave a Kp at 15 min of 1.1 and a Kp uu at 15 min of 1.5.
